Assay results reported in publication PMC4077772, “Evolutionary Origin of GnIH and NPFF in Chordates: Insights from Novel Amphioxus RFamide Peptides” (PLoS ONE, 2014).
Where no end group is shown, it is not given here.

How the values were obtained:
CRE-luciferase activity = details: ref [41]; cited from earlier work
Excerpt: (§1) We conducted in vitro assays to analyze whether the amphioxus PQRFa peptides have a biological activity.

cAMP levels = details: ref [42]; cited from earlier work
Excerpt: as §1

amphioxus PQRFa-R1 = experiment: FSK-induced CRE-luciferase reporter assay, COS-7 cells transfected with amphioxus PQRFa-R1; type: cell-based, Branchiostoma japonicum; details: 6 h, COS-7 cells with PQRFa-R1, tested 10^−10−10^−6 M, dual-luciferase, fold activation over basal, mean ± SEM (n=4−6), Figure 6
Experimental: COS-7 cells were maintained in Dulbecco's modified Eagle's medium (DMEM; GIBCO/Invitrogen, Carlsbad, CA) supplemented with high glucose (4.5 g/L) containing 10% fetal bovine serum (GIBCO/Invitrogen) and 1% penicillin/streptomycin antibiotics (GIBCO/Invitrogen) in a humidified 5% CO2 atmosphere at 37°C. For luciferase assay, COS-7 cells were plated in 24-well plates and grown to 70–80% confluence for 24 h before transfection. Cells were then co-transfected with 200 ng of p3XFLAG-CMV-14 expression vector (Sigma-Aldrich Co., St Louis, MO) containing the amphioxus PQRFa-R1, PQRFa-R2, or empty vector, 200 ng of the pGL4.29[luc2P/CRE/Hygro] […] Cell extracts were prepared, and luciferase activity was measured using the dual-luciferase reporter assay system (Promega). […] Statistical significance was assessed by Prism statistical software (GraphPad Software Inc., La Jolla, CA). […]
Figure 5 Effect of amphioxus PQRFa peptides on forskolin (FSK)-induced or basal CRE-luciferase activity. […] The effect of amphioxus PQRFa peptides on basal CRE-luciferase activity was also tested in COS-7 cells transfected with amphioxus PQRFa-R1 or R2.The relative luciferase activity was measured from cell lysates and expressed as fold activation over the respective basal levels. […]

pituitary = details: lamprey GnIH; ref [24]; cited from earlier work
Excerpt: as §1

FLFQPQRFamide [NPFF, pain modulatory neuropeptide with a C-terminal Pro-Gln-Arg-Phe-NH2 motif]
effect on FSK-stimulated CRE-luciferase activity (CRE-luciferase activity): inhibited FSK-stimulated CRE-luciferase activity
effect on cAMP levels (cAMP levels): inhibited cAMP levels

GRDQGWRPQRF-NH2 [PQRFa-3]
inhibition of FSK-induced CRE-luciferase activity (dose-dependent study) (amphioxus PQRFa-R1; 10^−6 M peptide): inhibited FSK-induced CRE-luciferase activity
inhibition of FSK-induced CRE-luciferase activity (dose-dependent study) (amphioxus PQRFa-R1; 10^−7 M peptide): inhibited FSK-induced CRE-luciferase activity

SEPFWHRTRPQRF-NH2 [Lamprey GnIH (LPXRFa peptide-2), lamprey GnIH ortholog]
effect on expression of GTHβ mRNA in the pituitary (pituitary): increased the expression of GTHβ mRNA
